Assays:
[1] = UV-Vis absorption in DMSO; type: physicochemical; settings: for λabs, absorption wavelength: in DMSO
Experimental: FIG. 2 illustrates UV-Vis absorption (solid line) and fluorescence emission (dotted line) spectra of NI1 (60 μM) and NI2 (40 μM) in DMSO according to an embodiment of the present disclosure;
In the UV-Vis spectrum of FIG. 2 and Table 1, an absorption peak of NI1 has a tendency of red-shift absorption (λabs=728 nm, in DMSO) compared to NI2 (λabs=690 nm, in DMSO) in an organic solvent. […] The molar absorption coefficient (8) of NI1 is relatively lower than that of NI2, which generates a conjugate in a free pair of electrons of an —NH group due to the introduction of a phenyl group in NI2 and may reduce an ICT effect from an electron donor group to an electron acceptor group compared to NI1.

[2] = Photothermal conversion efficiency; type: physicochemical; design: η (THF), photothermal conversion efficiency: concentration or dose not given beside the values; settings: for η (DMSO), photothermal conversion efficiency: in DMSO; for η (THF), photothermal conversion efficiency: in THF; for η (NPs), photothermal conversion efficiency: nanoparticles (nanoaggregates)
Experimental: FIGS. 3A, 3B, and 3C relate to the thermal reaction of NI2 NPs according to 691 nm laser irradiation at 1 W/cm^2 and 1.5 W/cm^2 according to an embodiment of the present disclosure. FIG. 3A illustrates temperature rise measured in NI2 NPs at various concentrations (0 for distilled water, 25, 50, 75, and 100 μM) after irradiation for 150 seconds (N=4); FIG. 3B illustrates photothermal convergence efficiency (PCE) of NI2 NPs (100 μM) in 4 ON/OFF cycles of laser irradiation (ON/OFF time=150 s/450 s; duty cycle=25%); and FIG. 3C illustrates infrared thermal images of NI2 NPs (100 μM) captured at various irradiation times (scale bar=5 mm);
FIGS. 3A, 3B and 3C show quantitative analysis results of the photothermal characteristics and photothermal conversion efficiency of NI2 nanoparticles according to various concentrations and laser irradiation times in a 691 nm laser (1 W/cm^2 and 1.5 W/cm^2) irradiation of NI2 nanoparticles. When the concentration of the NI2 solution (in D.W.) was changed from 0 to 100 μM, it could be seen that the temperature increased in proportion to the concentration when the temperature change of the NI2 solution was measured after absorption for 150 seconds. That is, in FIG. 3A, it may be seen that a temperature increase (ΔT) changes linearly after irradiation for 150 seconds (R^2=0.98 to 0.99), and the maximum temperature of the NI2 NP was 42.8±2.8° C. and 54.4±0.5° C. for 1 W/cm^2 and 1.5 W/cm^2 at 100 μM, respectively. […] In FIG. 3C, it may be seen in the captured sequential thermal images showing the “spatio-temporal distribution” in the temperature area.

| ε, molar absorption coefficient [1] | λabs, absorption wavelength [1] [nm] | η (DMSO), photothermal conversion efficiency [2] [%] | η (THF), photothermal conversion efficiency [2] [%] | η (NPs), photothermal conversion efficiency [2] [%] | Structure (SMILES) |
| --- | --- | --- | --- | --- | --- |
| 15.6 ×10^3 | 690 | 52.1 | 32.4 | 92.5 | N#CC(C#N)=C1C(=Nc2ccc(Nc3ccccc3)cc2)C(=C(C#N)C#N)c2ccccc21 [NI2] |
| 12.0 ×10^3 | 728 | 50.3 | 31.4 | 58.3 | CNc1ccc(N=C2C(=C(C#N)C#N)c3ccccc3C2=C(C#N)C#N)cc1 [NI1] |

— patent US12622966B2, “Compound for photothermal cancer therapy, composition including the same, and method for photothermal cancer therapy” (PUKYONG NATIONAL UNIVERSITY INDUSTRY-UNIVERSITY COOPERATION …, priority 2022, dated 2026)
